Reference: US9902736B2, “1-oxo/acylation-14-acylated oridonin derivative, preparation method therefor and application thereof” (HANGZHOU BENSHENG PHARMACEUTICAL CO., LTD., priority 2012, dated 2018)
Values after ≈ are worked out from the molar mass of the structure shown.

How the values were obtained:
CNE = test: Solid tumor cell growth inhibition, MTT, 72 h; format: cell-based, human; details: Homo sapiens, CNE; 72 h, MTT
Experimental: (§1) 6000 well-growing human solid tumor cells were obtained and inoculated into wells of a 96-well cell culture plate. The culture medium was DMEM High Glucose cell culture medium containing 10% fetal bovine serum. The plate was placed in a carbon dioxide cell incubator (5% CO2) at 37° C. and incubated for 24 hours. After added with 1-oxo/acylated-14-acylated oridonin derivatives of different concentration and mixed uniformly, the plate was placed in a carbon dioxide cell incubator (5% CO2) at 37° C. and incubated for 72 hours. Then the viable cell concentration was determined by MTT method.

Hela = test: Solid tumor cell growth inhibition, MTT, 72 h; format: cell-based, human; details: Homo sapiens, HeLa; 72 h, MTT
Experimental: as §1

Hep-2 = test: Solid tumor cell growth inhibition, MTT, 72 h; format: cell-based, human; details: Homo sapiens, HEp-2; 72 h, MTT
Experimental: as §1

MGC-803 = test: Solid tumor cell growth inhibition, MTT, 72 h; format: cell-based, human; details: Homo sapiens, MGC-803; 72 h, MTT
Experimental: as §1

NB4 = test: Leukemia cell growth inhibition, MTT, 72 h; format: cell-based, human; details: Homo sapiens, NB-4; 72 h, MTT
Text: (§2) Leukemia cell lines: leukemia cell lines: K562/adr (drug-resistant, chronic myeloid leukemia, CML), NB4 (acute promyelocytic leukemia, AML), Kasumi-1 (acute myeloid leukemia M2 type, AML-M2), Jurkat (acute lymphoblastic leukemia, ALL), all of which were donated by Cancer Research Institute of Zhejiang University, China; and H9 (acute lymphoblastic leukemia, ALL), which was purchased from China Center for Type Culture Collection.
(§3) 6000 well-growing leukemia cells were obtained and inoculated into wells of a 96-well cell culture plate. […] On the next day, the 1-oxo/acylated-14-acylated oridonin derivatives of different concentrations were added and mixed uniformly. The plate was placed in a carbon dioxide cell incubator (5% CO2) at 37° C. and was incubated for 72 hours. Then the viable cell concentration was determined by MTT method.

Jurkat = test: Leukemia cell growth inhibition, MTT, 72 h; format: cell-based, human; details: Homo sapiens, Jurkat; 72 h, MTT
Text: as §2, §3

H9 = test: Leukemia cell growth inhibition, MTT, 72 h; format: cell-based, human; details: Homo sapiens, H9; 72 h, MTT
Text: as §2, §3

RPMI 8226 = test: Multiple myeloma cell growth inhibition, MTT, 72 h; format: cell-based; details: Homo sapiens
Experimental: Multiple myeloma cell lines: RPMI8226 (multiple myeloma), purchased from Fuxiang Bio-tech Co. Ltd., Shanghai, China.
6000 well-growing cells were obtained and inoculated into wells of a 96-well cell culture plate. […] On the next day, the 1-oxo/acylated-14-acylated oridonin derivatives of different concentrations were added and mixed uniformly. The plate was placed in a carbon dioxide cell incubator (5% CO2) at 37° C. and incubated for 72 hours. Then the viable cell concentration was determined by MTT method.

K562/ADR = test: Leukemia cell growth inhibition, MTT, 72 h; format: cell-based; details: Homo sapiens
Text: as §2, §3

Kasumi-1 = test: Leukemia cell growth inhibition, MTT, 72 h; format: cell-based; details: Homo sapiens
Text: as §2, §3

CaEs-17 = test: Solid tumor cell growth inhibition, MTT, 72 h; format: cell-based; details: Homo sapiens, CaEs17
Experimental: as §1

PANC-1 = test: Solid tumor cell growth inhibition, MTT, 72 h; format: cell-based; details: Homo sapiens
Experimental: as §1

Becap-37 = test: Solid tumor cell growth inhibition, MTT, 72 h; format: cell-based; details: Homo sapiens
Experimental: as §1

Hep G2 = test: Solid tumor cell growth inhibition, MTT, 72 h; format: cell-based; details: Homo sapiens, HepG2
Experimental: as §1

A549 = test: Solid tumor cell growth inhibition, MTT, 72 h; format: cell-based; details: Homo sapiens
Experimental: as §1

RKO = test: Solid tumor cell growth inhibition, MTT, 72 h; format: cell-based; details: Homo sapiens
Experimental: as §1

U87-MG = test: Solid tumor cell growth inhibition, MTT, 72 h; format: cell-based; details: Homo sapiens, U-87 MG
Experimental: as §1

MG-63 = test: Solid tumor cell growth inhibition, MTT, 72 h; format: cell-based; details: Homo sapiens
Experimental: as §1

SK-OV-3 = test: Solid tumor cell growth inhibition, MTT, 72 h; format: cell-based; details: Homo sapiens, SK-OV-3, 72 h, MTT; for IC50: read-out: IC50 SK-OV-3; for IC90: read-out: IC90 SK-OV-3
Experimental: as §1

PC-3 = test: Solid tumor cell growth inhibition, MTT, 72 h; format: cell-based; details: Homo sapiens
Experimental: as §1

| SMILES | IC50 (CNE) [µg/mL] | IC90 (CNE) [µg/mL] | IC50 (Hela) [µg/mL] | IC90 (Hela) [µg/mL] | IC50 (Hep-2) [µg/mL] | IC90 (Hep-2) [µg/mL] | IC50 (MGC-803) [µg/mL] | IC90 (MGC-803) [µg/mL] | IC50 (NB4) [µg/mL] | IC90 (NB4) [µg/mL] | IC50 (Jurkat) [µg/mL] | IC90 (Jurkat) [µg/mL] | IC50 (H9) [µg/mL] | IC90 (H9) [µg/mL] | IC50 (RPMI 8226) [µg/mL] | IC90 (RPMI 8226) [µg/mL] | IC50 (K562/ADR) [µg/mL] | IC90 (K562/ADR) [µg/mL] | IC50 (Kasumi-1) [µg/mL] | IC90 (Kasumi-1) [µg/mL] | further results |
| --- | --- | --- | --- | --- | --- | --- | --- | --- | --- | --- | --- | --- | --- | --- | --- | --- | --- | --- | --- | --- | --- |
| C=C1C(=O)[C@]23[C@H](OC(=O)C4CC4)[C@H]1CC[C@H]2[C@@]12CO[C@@]3(O)[C@@H](O)[C@@H]1C(C)(C)CCC2=O [BS-OR-017] | 1.13 (≈ 2.62 µM) | 4.96 (≈ 11.5 µM) | 1.35 (≈ 3.14 µM) | 3.86 (≈ 8.97 µM) | 1.62 (≈ 3.76 µM) | 6.93 (≈ 16.1 µM) | 0.91 (≈ 2.11 µM) | 4.16 (≈ 9.66 µM) | 0.14 (≈ 0.325 µM) | 0.82 (≈ 1.9 µM) | 0.92 (≈ 2.14 µM) | 5.63 (≈ 13.1 µM) | 0.53 (≈ 1.23 µM) | 0.98 (≈ 2.28 µM) | 0.5 (≈ 1.16 µM) | 1.88 (≈ 4.37 µM) | 0.52 (≈ 1.21 µM) | 1.9 (≈ 4.41 µM) | 0.69 (≈ 1.6 µM) | 1.7 (≈ 3.95 µM) | IC50 (CaEs-17): 1.32 µg/mL (≈ 3.07 µM); IC90 (CaEs-17): 5.89 µg/mL (≈ 13.7 µM); IC50 (PANC-1): 1.96 µg/mL (≈ 4.55 µM); IC90 (PANC-1): 5.76 µg/mL (≈ 13.4 µM); IC50 (Becap-37): 1.13 µg/mL (≈ 2.62 µM); IC90 (Becap-37): 4.58 µg/mL (≈ 10.6 µM); IC50 (Hep G2): 1.61 µg/mL (≈ 3.74 µM); IC90 (Hep G2): 8.04 µg/mL (≈ 18.7 µM); IC50 (A549): 2.93 µg/mL (≈ 6.81 µM); IC90 (A549): 6.29 µg/mL (≈ 14.6 µM); IC50 (RKO): 0.6 µg/mL (≈ 1.39 µM); IC90 (RKO): 1.91 µg/mL (≈ 4.44 µM); IC50 (U87-MG): 1.24 µg/mL (≈ 2.88 µM); IC90 (U87-MG): 3.64 µg/mL (≈ 8.46 µM); IC50 (MG-63): 0.47 µg/mL (≈ 1.09 µM); IC90 (MG-63): 1.8 µg/mL (≈ 4.18 µM); IC50 (SK-OV-3): 1.99 µg/mL (≈ 4.62 µM); IC90 (SK-OV-3): 3.92 µg/mL (≈ 9.11 µM); IC50 (PC-3): 1.99 µg/mL (≈ 4.62 µM); IC90 (PC-3): 3.92 µg/mL (≈ 9.11 µM) |
| C=C1C(=O)[C@]23[C@H](OC(=O)/C=C/c4ccccc4)[C@H]1CC[C@H]2[C@@]12CO[C@@]3(O)[C@@H](O)[C@@H]1C(C)(C)CCC2=O [BS-OR-019] | 7.19 (≈ 14.6 µM) | > 16 | 1.43 (≈ 2.9 µM) | 3.74 (≈ 7.59 µM) | 10.7 (≈ 21.7 µM) | > 16 | 4.98 (≈ 10.1 µM) | 12 (≈ 24.4 µM) | 1.02 (≈ 2.07 µM) | 3.66 (≈ 7.43 µM) | 0.58 (≈ 1.18 µM) | 2.48 (≈ 5.03 µM) | 2.69 (≈ 5.46 µM) | 5.41 (≈ 11 µM) | 0.34 (≈ 0.69 µM) | 1.7 (≈ 3.45 µM) | 0.43 (≈ 0.873 µM) | 1.74 (≈ 3.53 µM) | 0.58 (≈ 1.18 µM) | 1.55 (≈ 3.15 µM) | IC50 (CaEs-17): 0.89 µg/mL (≈ 1.81 µM); IC90 (CaEs-17): 5.62 µg/mL (≈ 11.4 µM); IC50 (PANC-1): 1.53 µg/mL (≈ 3.11 µM); IC90 (PANC-1): 9.62 µg/mL (≈ 19.5 µM); IC50 (Becap-37): 0.89 µg/mL (≈ 1.81 µM); IC90 (Becap-37): 8.43 µg/mL (≈ 17.1 µM); IC50 (Hep G2): 0.94 µg/mL (≈ 1.91 µM); IC90 (Hep G2): 14.6 µg/mL (≈ 29.7 µM); IC50 (A549): 1.66 µg/mL (≈ 3.37 µM); IC90 (A549): 4.43 µg/mL (≈ 8.99 µM); IC50 (RKO): 0.38 µg/mL (≈ 0.771 µM); IC90 (RKO): 0.89 µg/mL (≈ 1.81 µM); IC50 (U87-MG): 0.77 µg/mL (≈ 1.56 µM); IC90 (U87-MG): 2.43 µg/mL (≈ 4.93 µM); IC50 (MG-63): 0.35 µg/mL (≈ 0.711 µM); IC90 (MG-63): 0.79 µg/mL (≈ 1.6 µM); IC50 (SK-OV-3): 1.41 µg/mL (≈ 2.86 µM); IC90 (SK-OV-3): 3.86 µg/mL (≈ 7.84 µM); IC50 (PC-3): 1.41 µg/mL (≈ 2.86 µM); IC90 (PC-3): 3.86 µg/mL (≈ 7.84 µM) |
